In paper PMC5025651, “Reprofiled anthelmintics abate hypervirulent stationary-phase Clostridium difficile” (Scientific Reports, 2016):
Converted amounts (≈) assume the structure as drawn. Where a name gives a salt, the structure may show the parent alone. Read-outs that look alike come from different tables or passages of the source.

Columns and labels:
[1] = test system: C. difficile strain 4118; experiment: Minimum bactericidal concentration (MBC), logarithmic- and stationary-phase cells; assay type: cell-based, Clostridium difficile
Experimental: The procedure for MBC determination was adapted from that of Alam et al.[44]. Briefly, a single overnight colony of C. difficile strain 4118 (streaked onto blood agar plate) was suspended in BHIS and grown to OD600 ~ 0.4–0.5 (logarithmic phase) or for 24 h (stationary phase). In 96-well microtiter plates, cultures were added to two-fold serial dilutions of test compounds in BHIS and incubated for 20–24 h at 37 °C in an anaerobic chamber. […] MBC measurements were performed in duplicate.

[2] = test system: C. clostridioforme ATCC 25537; experiment: MIC by broth microdilution; assay type: cell-based, Clostridium clostridioforme; settings: Clostridium, ATCC25537; C. clostridioforme ATCC 25537; BHIS, anaerobic; duplicate; read-out: MIC
[3] = test system: L. reuteri Strain CF48-3A; experiment: MIC by broth microdilution; assay type: cell-based, Lactobacillus reuteri; settings: Limosilactobacillus reuteri; L. reuteri CF48-3A; CAMHB with 5% laked horse blood, ~48 h; duplicate; read-out: MIC
[4] = test system: B. breve Strain EX336960VC19; experiment: MIC by broth microdilution; assay type: cell-based; settings: Bifidobacterium breve; B. breve EX336960VC19; LSM broth, anaerobic; duplicate; read-out: MIC
[5] = test system: S. epidermidis 1457; experiment: MIC by broth microdilution; assay type: cell-based; settings: Staphylococcus epidermidis; S. epidermidis 1457; CAMHB, aerobic; duplicate; read-out: MIC
[6] = test system: B. thetaiotaomicron ATCC 29148; experiment: microbe, parasite or virus in culture; assay type: cell-based; settings: Bacteroides thetaiotaomicron, ATCC29148
[7] = test system: L. plantarum ATCC 8014; experiment: MIC by broth microdilution; assay type: cell-based; settings: Lactiplantibacillus plantarum, ATCC8014; L. plantarum ATCC 8014; CAMHB with 5% laked horse blood, ~48 h; duplicate; read-out: MIC
[8] = test system: 16 C. difficile isolates; experiment: MIC by broth microdilution, summary over 16 C. difficile isolates; assay type: cell-based, Clostridium difficile; settings: for MIC50: MIC at which 50% of the 16 isolates are inhibited; for MIC90: MIC at which 90% of the 16 isolates are inhibited
[9] = test system: C. difficile isolate 20110960 (ribotype 017); experiment: MIC by broth microdilution; assay type: cell-based, Clostridium difficile; settings: Clostridioides difficile; isolate 20110960, ribotype 017; duplicate; read-out: MIC
[10] = test system: C. sporogenes ATCC 15579; experiment: MIC by broth microdilution; assay type: cell-based; settings: Clostridium sporogenes, ATCC15579, BHIS, anaerobic, duplicate
[11] = test system: C. difficile isolate 20110869 (ribotype 001_072); experiment: MIC by broth microdilution; assay type: cell-based, Clostridium difficile; settings: Clostridioides difficile; isolate 20110869, ribotype 001_072; duplicate; read-out: MIC
[12] = test system: P. nigrescens ATCC 33563; experiment: MIC by broth microdilution; assay type: cell-based; settings: Prevotella nigrescens, ATCC33563
[13] = test system: C. difficile isolate 20120016 (ribotype 019); experiment: MIC by broth microdilution; assay type: cell-based, Clostridium difficile; settings: Clostridioides difficile; isolate 20120016, ribotype 019; duplicate; read-out: MIC
[14] = test system: C. difficile strain 4118; experiment: Time-kill kinetics against stationary-phase cultures; assay type: cell-based, Clostridium difficile
Experimental: At t = 0, 3, 6 and 24 h, sample aliquots were withdrawn from the treated cultures and bacterial viability was scored by plating serial dilutions on BHIS agar plates. The agar plates were incubated in the anaerobic chamber for 20–24 h at 37 °C. Kinetic experiments were performed at least twice.

[15] = test system: S. aureus RN4220; experiment: MIC by broth microdilution; assay type: cell-based; settings: Staphylococcus aureus, CAMHB, aerobic, duplicate
[16] = test system: C. difficile isolate 20110740 (ribotype 018); experiment: MIC by broth microdilution; assay type: cell-based, Clostridium difficile; settings: Clostridioides difficile; isolate 20110740, ribotype 018; duplicate; read-out: MIC
[17] = test system: C. difficile strain 4118 (CD4118, ATCC BAA-1870, ribotype 027); experiment: MIC by broth microdilution; assay type: cell-based, Clostridium difficile; settings: BHIS broth, anaerobic, 20–24 h, n = 2; for MIC: Clostridioides difficile, ATCCBAA1870, read-out: MIC C. difficile 4118
[18] = test system: L. johnsonii Strain 135-1-CHN; experiment: MIC by broth microdilution; assay type: cell-based; settings: Lactobacillus johnsonii, STRAIN1351CHN; L. johnsonii 135-1-CHN; CAMHB with 5% laked horse blood, ~48 h; duplicate; read-out: MIC
[19] = test system: P. distasonis ATCC 8503; experiment: MIC by broth microdilution; assay type: cell-based; settings: Parabacteroides distasonis, ATCC8503
[20] = test system: C. difficile isolate 20110566 (ribotype 020); experiment: MIC by broth microdilution; assay type: cell-based, Clostridium difficile; settings: Clostridioides difficile; isolate 20110566, ribotype 020; duplicate; read-out: MIC
[21] = test system: C. difficile isolate 20110986 (ribotype 078); experiment: MIC by broth microdilution; assay type: cell-based, Clostridium difficile; settings: Clostridioides difficile; isolate 20110986, ribotype 078; duplicate; read-out: MIC
[22] = test system: C. difficile isolate 20121412 (ribotype 047); experiment: MIC by broth microdilution; assay type: cell-based, Clostridium difficile; settings: Clostridioides difficile; isolate 20121412, ribotype 047; duplicate; read-out: MIC
[23] = test system: B. fragilis Strain CL05T00C42; experiment: MIC by broth microdilution; assay type: cell-based; settings: Bacteroides fragilis
[24] = Hemolysis assay; assay type: cell-based; settings: sheep, sheep red blood cells (3% suspension), pH 7.4; 32 µg/mL, 1 h, 37 °C; 1% Triton X-100 positive control; triplicate; read-out: Hemolysis (%)
Experimental: Sheep red blood cells (Innovative Research, Novi, MI, USA) were washed three times with PBS pH 7.4. A 3% cell suspension in PBS (100 μL) was added to test compounds in PBS (100 μL, to a final concentration of 32 μg/mL), and then incubated at 37 °C for 1 h. The plate was centrifuged at 500 × g for 10 min, and supernatants (100 μL) were transferred to a clean 96-well plate. Hemolysis was determined by measuring absorbance at 540 nm, with 1% Triton X-100 as the positive control and 0.5% DMSO in PBS as the negative control. Hemolysis assays were performed in triplicate.

[25] = test system: B. longum subsp. longum Strain 44B; experiment: MIC by broth microdilution; assay type: cell-based; settings: Bifidobacterium longum; B. longum subsp. longum 44B; LSM broth, anaerobic; duplicate; read-out: MIC
[26] = test system: C. difficile isolate 20100422 (ribotype 054); experiment: MIC by broth microdilution; assay type: cell-based, Clostridium difficile; settings: Clostridioides difficile; isolate 20100422, ribotype 054; duplicate; read-out: MIC
[27] = test system: B. subtilis ATCC 6051; experiment: MIC by broth microdilution; assay type: cell-based; settings: Bacillus subtilis, ATCC6051; B. subtilis ATCC 6051; CAMHB, aerobic; duplicate; read-out: MIC
[28] = test system: C. difficile isolate 20110742 (ribotype 002); experiment: MIC by broth microdilution; assay type: cell-based, Clostridium difficile; settings: Clostridioides difficile; isolate 20110742, ribotype 002; duplicate; read-out: MIC
[29] = test system: C. difficile isolate 20110973 (ribotype 106); experiment: MIC by broth microdilution; assay type: cell-based, Clostridium difficile; settings: Clostridioides difficile; isolate 20110973, ribotype 106; duplicate; read-out: MIC
[30] = test system: C. difficile isolate 20100584 (ribotype 014); experiment: MIC by broth microdilution; assay type: cell-based, Clostridium difficile; settings: Clostridioides difficile; isolate 20100584, ribotype 014; duplicate; read-out: MIC
[31] = test system: A. baumannii M2; experiment: MIC by broth microdilution; assay type: cell-based; settings: Acinetobacter baumannii; A. baumannii M2; CAMHB, aerobic; duplicate; read-out: MIC

Row | SMILES | MIC [2] [µg/mL] | MIC [3] [µg/mL] | MIC [4] [µg/mL] | MIC [5] [µg/mL] | MIC [7] [µg/mL] | MIC [9] [µg/mL] | MIC [10] [µg/mL] | MIC [11] [µg/mL] | MIC [13] [µg/mL] | MIC [15] [µg/mL] | MIC [16] [µg/mL] | MIC [17] [µg/mL] | MIC [18] [µg/mL] | MIC [20] [µg/mL] | MIC [21] [µg/mL] | MIC [22] [µg/mL] | MIC [25] [µg/mL] | MIC [26] [µg/mL] | MIC [27] [µg/mL] | MIC [28] [µg/mL] | other results
1 | O=C(Nc1ccc(Oc2ccc(Cl)cc2)cc1)c1cc(Cl)cc(Cl)c1O [Compound 8] | 4 (≈ 9.79 µM) | 16 (≈ 39.2 µM) | 8 (≈ 19.6 µM) | ≤ 0.03 | 16 (≈ 39.2 µM) | 0.06 (≈ 0.147 µM) | 4 (≈ 9.79 µM) | 0.06 to 0.13 (≈ 0.147 to 0.318 µM) | 0.13 (≈ 0.318 µM) | 0.13 (≈ 0.318 µM) | 0.06 (≈ 0.147 µM) | 0.06 (≈ 0.147 µM) | 32 (≈ 78.3 µM) | 0.06 (≈ 0.147 µM) | 0.06 (≈ 0.147 µM) | 0.13 (≈ 0.318 µM) | 8 (≈ 19.6 µM) | 0.25 (≈ 0.612 µM) | ≤ 0.03 | 0.06 (≈ 0.147 µM) | MBC ([1]; Clostridioides difficile, 4118, minimum bactericidal concentration (≥3-log reduction) for logarithmic-phase cells, 20–24 h, n = 2, read-out: MBClog): 0.25 µg/mL (≈ 0.612 µM); MBC ([1]; Clostridioides difficile, 4118, minimum bactericidal concentration (≥3-log reduction) for stationary-phase cells, 20–24 h, n = 2, read-out: MBCstat): 1 µg/mL (≈ 2.45 µM); MIC ([6]; B. thetaiotaomicron ATCC 29148, supplemented Brucella broth, anaerobic, duplicate, read-out: MIC): > 32 µg/mL; MIC ([8]; Clostridioides difficile, 14 isolates other than CD630 and CD4118, read-out: MIC values ranging, 14 other C. difficile isolates): 0.03 to 0.25 µg/mL (≈ 0.0734 to 0.612 µM); MIC50 ([8]; n = 2): 0.06 µg/mL (≈ 0.147 µM); MIC90 ([8]; n = 2): 0.25 µg/mL (≈ 0.612 µM); MIC ([12]; P. nigrescens ATCC 33563, supplemented Brucella broth, anaerobic, duplicate, read-out: MIC): 4 µg/mL (≈ 9.79 µM); log decrease in the number of CFUs ([14]; 4 × MIC, 24 h, stationary-phase CD4118): 2.4 log; time to eradicate >99.9% of viable cells ([14]; 16× MIC (rafoxanide 2 μg/mL, closantel 4 μg/mL, compound 8 1 μg/mL), stationary-phase CD4118): 24 h; MIC ([19]; P. distasonis ATCC 8503, supplemented Brucella broth, anaerobic, duplicate, read-out: MIC): 4 µg/mL (≈ 9.79 µM); MIC ([23]; B. fragilis CL05T00C42, supplemented Brucella broth, anaerobic, duplicate, read-out: MIC): 16 µg/mL (≈ 39.2 µM); hemolysis at 1 h, 32 µg/mL [24]: < 1%; MIC [29]: 0.03 µg/mL (≈ 0.0734 µM); MIC [30]: 0.06 µg/mL (≈ 0.147 µM); MIC [31]: 32 µg/mL (≈ 78.3 µM)
2 | CN[C@H](CC(C)C)C(=O)N[C@H]1C(=O)N[C@@H](CC(N)=O)C(=O)N[C@H]2C(=O)N[C@H]3C(=O)N[C@H](C(=O)N[C@H](C(=O)O)c4cc(O)cc(O)c4-c4cc3ccc4O)[C@H](O)c3ccc(c(Cl)c3)Oc3cc2cc(c3O[C@@H]2O[C@H](CO)[C@@H](O)[C@H](O)[C@H]2O[C@H]2C[C@](C)(N)[C@H](O)[C@H](C)O2)Oc2ccc(cc2Cl)[C@H]1O [Vancomycin, vancomycin hydrochloride hydrate] | 0.5 | > 32 | 0.5 | 2 | > 32 | 0.5 | 2 | 1 | 0.5 | 1 | 1 | 2 | 0.5 | 0.5 | 0.5 to 1 | 1 | 0.25 | 1 | 0.13 | 0.5 to 1 | MBC ([1]; Clostridioides difficile, 4118, read-out: MBClog): 8 µg/mL; MBC ([1]; Clostridioides difficile, 4118, read-out: MBCstat): > 32 µg/mL; log reduction of CD4118 stationary-phase cells ([1]; at 32 μg/mL, 20–24 h): < 3 log; MIC [6]: > 32 µg/mL; MIC50 ([8]; Clostridioides difficile, n = 2, read-out: MIC50): 1 µg/mL; MIC90 ([8]; Clostridioides difficile, n = 2, read-out: MIC90): 2 µg/mL; MIC Range ([8]; range over 16 C. difficile isolates, n = 2): 0.5 to 2 µg/mL; MIC [12]: > 32 µg/mL; log killing of CD4118 stationary-phase cells ([14]; 16× MIC (metronidazole 4 μg/mL, vancomycin 32 μg/mL), up to 24 h): < 3 log; MIC C. difficile 4118 [17]: 2 µg/mL; MIC [19]: > 32 µg/mL; MIC [23]: 32 µg/mL; MIC [29]: 2 µg/mL; MIC [30]: 0.5 µg/mL; MIC [31]: > 32 µg/mL
